Consider 1 compound from patent CN114767685A, “四氢叶酸在抑菌或者预防或治疗眼部疾病中的用途” (Peking University Third Hospital Peking University Third …, priority 2022, dated 2022).

The test system of experiment [1] is Fusarium (镰刀菌). Put plainly: Inhibition of Fusarium on solid media with mixed amino acids as nitrogen source (simulated cornea). Type of experiment: cell-based. The note with it: THFA 10 mM, cultured as Example 1.
Experiment [2] relates to Fusarium (镰刀菌). In words: Fusarium growth curve (OD) in liquid amino acid media, 96-well plate. It counts as cell-based. The note with it: THFA 10 mM, each amino acid group, 29℃, 72 h, Figure 5B-F.
Experiment [3] has as its system Fusarium (镰刀菌). Put plainly: Inhibition of Fusarium colony growth on solid medium with proline as sole nitrogen source (pro- medium). Type of experiment: cell-based, Fusarium (CGMCC3.5840). The note with it: 29℃, 72 h, Figure 2.

Take `Nc1nc2c(c(=O)[nH]1)N[C@H](CNc1ccc(C(=O)N[C@@H](CCC(=O)O)C(=O)O)cc1)CN2` [THFA, 5,6,7,8-四氢叶酸]: the “inhibition of Fusarium growth” value in the experiment with Fusarium (镰刀菌) [1] (solid media with different mixed amino acid nitrogen sources (taurine, glutamine, glycine, proline), Figure 4) was “均能够显著抑制镰刀菌生长”; in the experiment with Fusarium (镰刀菌) [3] (THFA 1.25, 2.5, 5, 10, 20 mM vs 0 mM) it was “镰刀菌的生长受到明显抑制”. In addition, the colony pigment result in the experiment with Fusarium (镰刀菌) [1] (solid media with different mixed amino acids, Figure 4B-D) is recorded as “色素明显减弱”. Besides, in the experiment on Fusarium (镰刀菌) [2], the “Fusarium growth (absorbance, OD, growth curve)” value is given as “镰刀菌生长均明显下降”. Besides, in the experiment with Fusarium (镰刀菌) [3] (THFA 0-20 mM), the “correlation of degree of inhibition with THFA concentration” value is listed as “抑制程度与THFA浓度具有相关性”. The colony diameter result was “明显小于2.5mM、1.25mM和0mM组” in the experiment with Fusarium (镰刀菌) [3] (THFA 5 mM), “均显著小于5mM组” with Fusarium (镰刀菌) [3] (THFA 10 mM) and “均显著小于5mM组” with Fusarium (镰刀菌) [3] (THFA 20 mM).
